# Assay results from US4215069A, “Arylthiovinylcyclopropanecarboxylate intermediates” (FMC Corporation, priority 1979, dated 1980).
# Tests used:
# [1] = system: Mexican bean beetle (Epilachna varivestis Muls.); assay: Initial contact activity against Mexican bean beetle (percent kill); format: in vivo; conditions: 72 hours exposure, read-out: Percent Kill MBB, initial activity
# Experimental: (§1) The test compound was dissolved in a small amount of acetone, and the acetone solution was dispersed in water containing one drop of isooctylphenyl polyethoxyethanol to make a solution having 1250 ppm (w/w) active ingredient. Aliquots of this solution were diluted with an appropriate amount of water to provide solutions containing various concentrations of active ingredient. Test organisms and techniques were as follows: the activity against Mexican bean beetle (Epilachna varivestis Muls.) and southern armyworm (Spodoptera eridania [Cram.]) was evaluated by dipping the leaves of pinto bean plants into the test solution and infesting the leaves with the appropriate immature-form insects when the foliage had dried. The activity against the pea aphid (Acyrthosiphon pisum [Harris]) was evaluated on broad bean plants whose leaves were dipped before infestation with adult aphids. The activity against twospotted spider mites (Tetranychus urticae Koch) was evaluated on pinto bean plants whose leaves were dipped after infestation with adult mites. The activity against the milkweed bug (Oncopeltus faciatus [Dallas]) was evaluated by spraying the test solutions into glass dishes or jars containing the adult insects. Following application of the compound and infestation the tests were maintained in a holding room at 80° F. and 50% relative humidity for an exposure period of 72 hours. At the end of this time the dead and living insects or mites were counted and the percent kill was calculated. Results of these tests are summarized in Table I. Most of the compounds tested were active against all the insects.
# [2] = system: twospotted spider mites (Tetranychus urticae Koch); assay: Initial contact activity against twospotted spider mite (percent kill); format: in vivo; conditions: 72 hours exposure, read-out: Percent Kill SM, initial activity
# Experimental: as §1
# [3] = system: pea aphid (Acyrthosiphon pisum [Harris]); assay: Initial contact activity against pea aphid (percent kill); format: in vivo; conditions: 72 hours exposure, read-out: Percent Kill PA, initial activity
# Experimental: as §1
# [4] = system: milkweed bug (Oncopeltus faciatus [Dallas]); assay: Initial contact activity against milkweed bug (percent kill); format: in vivo; conditions: 72 hours exposure, read-out: Percent Kill MWB, initial activity
# Experimental: as §1
# [5] = system: southern armyworm (Spodoptera eridania [Cram.]); assay: Initial contact activity against southern armyworm (percent kill); format: in vivo; conditions: 72 hours exposure, read-out: Percent Kill AW, initial activity
# Experimental: as §1
# Southern armyworm = assay: 7-day residual contact activity against southern armyworm (percent kill); format: in vivo; conditions: Spodoptera eridania, 168 h, treated surface aged seven days in light and air, read-out: Percent Kill AW, 7-day residual activity
# Experimental: as §1
# (§2) The residual contact activity of certain of the compounds was determined on the same organisms using the techniques described above, except that in each case the treated surface was allowed to dry and was exposed to normal light and air for seven days before introduction of the mites or insects. The seven day residual activity was minimal for the mite but substantial against the remaining organisms. Again, the remarkable activity of some of these compounds against milkweed bug and Mexican bean beetle was noted.
# Twospotted spider mite = assay: 7-day residual contact activity against twospotted spider mite (percent kill); format: in vivo; conditions: Tetranychus urticae, 168 h, treated surface aged seven days in light and air, read-out: Percent Kill SM, 7-day residual activity
# Experimental: as §1, §2
# Milkweed bug = assay: 7-day residual contact activity against milkweed bug (percent kill); format: in vivo, Oncopeltus faciatus; conditions: Oncopeltus fasciatus, 168 h, treated surface aged seven days in light and air, read-out: Percent Kill MWB, 7-day residual activity
# Experimental: as §1, §2
# Pea aphid = assay: 7-day residual contact activity against pea aphid (percent kill); format: in vivo; conditions: Acyrthosiphon pisum, 168 h, treated surface aged seven days in light and air, read-out: Percent Kill PA, 7-day residual activity
# Experimental: as §1, §2
SMILES,mortality at 20 ppm [1] [%],mortality at 78 ppm [1] [%],mortality at 312 ppm [1] [%],mortality at 78 ppm [2] [%],mortality at 312 ppm [2] [%],mortality at 1250 ppm [2] [%],mortality at 78 ppm [3] [%],mortality at 312 ppm [3] [%],mortality at 1250 ppm [3] [%],mortality at 78 ppm [4] [%],mortality at 312 ppm [4] [%],mortality at 1250 ppm [4] [%],mortality at 78 ppm [5] [%],mortality at 312 ppm [5] [%],mortality at 1250 ppm [5] [%],further results
"CC1(C)C(C=CSc2ccc(F)cc2)C1C(=O)OC(C#N)c1cccc(Oc2ccccc2)c1 (mixture of isomers) [Example 6, α-cyano-3-phenoxybenzyl cis,trans-3-[2-(E,Z)-(4-fluorophenylthio)ethenyl]-2,2-dimethylcyclopropanecarboxylate]",68,94,100,0,0,0,0,10,100,5,38,100,0,0,56,–
"CC1(C)C(C=CSc2ccccc2)C1C(=O)OCc1cccc(Oc2ccccc2)c1 (mixture of isomers) [Example 1, 3-phenoxybenzyl cis,trans-3-[2-(E,Z)-phenylthioethenyl]-2,2-dimethylcyclopropanecarboxylate]",0,62,–,0,0,0,0,0,0,10,5,30,0,–,0,activity at 20 ppm (Southern armyworm; 20 ppm): 0%; activity at 78 ppm (Southern armyworm; 78 ppm): 0%; activity at 312 ppm (Southern armyworm; 312 ppm): 0%; activity at 1250 ppm (Southern armyworm; 1250 ppm): 0%; mortality at 1.2 ppm ([1]; 1.2 ppm): 44%; mortality at 5 ppm ([1]; 5 ppm): 28%; mortality at 1250 ppm ([1]; 1250 ppm): 100%; mortality at 20 ppm ([2]; 20 ppm): 0%; mortality at 20 ppm ([3]; 20 ppm): 0%; activity at 1250 ppm (Twospotted spider mite): 0%; mortality at 20 ppm ([4]; 20 ppm): 10%; activity at 78 ppm (Milkweed bug; 78 ppm): 5%; activity at 312 ppm (Milkweed bug; 312 ppm): 10%; activity at 1250 ppm (Milkweed bug; 1250 ppm): 0%; mortality at 1.2 ppm ([5]; 1.2 ppm): 0%; mortality at 5 ppm ([5]; 5 ppm): 0%; mortality at 20 ppm ([5]; 20 ppm): 0%; activity at 78 ppm (Pea aphid; 78 ppm): 0%; activity at 312 ppm (Pea aphid; 312 ppm): 10%; activity at 1250 ppm (Pea aphid; 1250 ppm): 30%
"CC1(C)C(C=C(Cl)Sc2ccc(Cl)cc2)C1C(=O)OCc1cccc(Oc2ccccc2)c1 (mixture of isomers) [Example 9, 3-phenoxybenzyl cis,trans-3-[2-(E,Z)-chloro-2-(4-chlorophenylthio)ethenyl]-2,2-dimethylcyclopropanecarboxylate]",100,100,100,–,–,0,71,100,100,0,70,90,0,0,20,–
"CC1(C)C(C=C(Cl)Sc2ccc(F)cc2)C1C(=O)OC(C#N)c1cccc(Oc2ccccc2)c1 (mixture of isomers) [Example 8, α-cyano-3-phenoxybenzyl cis,trans-3-[2-(E,Z)-chloro-2-(4-fluorophenylthio)ethenyl]-2,2-dimethylcyclopropanecarboxylate]",100,100,100,–,–,100,46,94,93,75,100,100,40,80,90,–
"CC1(C)C(C=C(Cl)Sc2ccccc2)C1C(=O)OC(c1cccc(Oc2ccccc2)c1)C(F)(F)F (mixture of isomers) [Example 7, α-trifluoromethyl-3-phenoxybenzyl cis,trans-3-[2-(E,Z)-chloro-2-phenylthioethenyl]-2,2-dimethylcyclopropanecarboxylate]",90,100,100,–,–,62,94,100,100,5,32,100,0,0,0,–
"CC1(C)C(C=CSc2ccc(F)cc2)C1C(=O)OCc1cccc(Oc2ccccc2)c1 (mixture of isomers) [Example 5, 3-phenoxybenzyl cis,trans-3-[2-(E,Z)-(4-fluorophenylthio)ethenyl]-2,2-dimethylcyclopropanecarboxylate]",33,35,95,0,0,0,0,45,35,0,5,15,0,0,7,–
"CC1(C)C(C=C(Br)Sc2ccccc2)C1C(=O)OCc1cccc(Oc2ccccc2)c1 (mixture of isomers) [Example 10, 3-phenoxybenzyl cis,trans-3-[2-(E,Z)-bromo-2-phenylthioethenyl]-2,2-dimethylcyclopropanecarboxylate]",72,95,94,–,–,81,24,94,95,5,71,100,0,44,100,–
